Reference: patent publication US8846699B2, “Quinazoline derivatives as a multiplex inhibitor and method for the preparation thereof” (Hanmi Pharm. Co., Ltd., priority 2005, dated 2014)

What was measured:
EGFR1 (HER-1) = EGFR1 (HER-1) (Homo sapiens (Human), UniProt P00533); experiment: EGFR1 (HER-1) enzyme assay, fluorescence polarization; assay type: biochemical; settings: 100 μM ATP, poly(Glu, Tyr) substrate
[1] = test system: colon and rectal cancer cell line, SW-620; experiment: Inhibitory effect on growth of cancer cell line SW-620, SRB; assay type: cell-based; settings: not having overexpressed EGFR and EGFR2
Outline: (§1)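 Growth inhibition was measured by sulforhodamine-B staining (absorbance 570 nm) of TCA-fixed cells after 72 h compound exposure at 37 °C, 5% CO2. Test concentrations ran from 10 μM in 10-fold steps to 10^−4, with DMSO below 1%, in 10% FBS DMEM.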

VEGFR2 (KDR) = VEGFR2 (KDR) (Homo sapiens (Human), UniProt P35968); experiment: VEGFR2 (KDR) enzyme assay, fluorescence polarization; assay type: biochemical; settings: 5 μM ATP, poly(Glu, Tyr) substrate
Chain of VEGFR2 (KDR) (P35968 20-1356): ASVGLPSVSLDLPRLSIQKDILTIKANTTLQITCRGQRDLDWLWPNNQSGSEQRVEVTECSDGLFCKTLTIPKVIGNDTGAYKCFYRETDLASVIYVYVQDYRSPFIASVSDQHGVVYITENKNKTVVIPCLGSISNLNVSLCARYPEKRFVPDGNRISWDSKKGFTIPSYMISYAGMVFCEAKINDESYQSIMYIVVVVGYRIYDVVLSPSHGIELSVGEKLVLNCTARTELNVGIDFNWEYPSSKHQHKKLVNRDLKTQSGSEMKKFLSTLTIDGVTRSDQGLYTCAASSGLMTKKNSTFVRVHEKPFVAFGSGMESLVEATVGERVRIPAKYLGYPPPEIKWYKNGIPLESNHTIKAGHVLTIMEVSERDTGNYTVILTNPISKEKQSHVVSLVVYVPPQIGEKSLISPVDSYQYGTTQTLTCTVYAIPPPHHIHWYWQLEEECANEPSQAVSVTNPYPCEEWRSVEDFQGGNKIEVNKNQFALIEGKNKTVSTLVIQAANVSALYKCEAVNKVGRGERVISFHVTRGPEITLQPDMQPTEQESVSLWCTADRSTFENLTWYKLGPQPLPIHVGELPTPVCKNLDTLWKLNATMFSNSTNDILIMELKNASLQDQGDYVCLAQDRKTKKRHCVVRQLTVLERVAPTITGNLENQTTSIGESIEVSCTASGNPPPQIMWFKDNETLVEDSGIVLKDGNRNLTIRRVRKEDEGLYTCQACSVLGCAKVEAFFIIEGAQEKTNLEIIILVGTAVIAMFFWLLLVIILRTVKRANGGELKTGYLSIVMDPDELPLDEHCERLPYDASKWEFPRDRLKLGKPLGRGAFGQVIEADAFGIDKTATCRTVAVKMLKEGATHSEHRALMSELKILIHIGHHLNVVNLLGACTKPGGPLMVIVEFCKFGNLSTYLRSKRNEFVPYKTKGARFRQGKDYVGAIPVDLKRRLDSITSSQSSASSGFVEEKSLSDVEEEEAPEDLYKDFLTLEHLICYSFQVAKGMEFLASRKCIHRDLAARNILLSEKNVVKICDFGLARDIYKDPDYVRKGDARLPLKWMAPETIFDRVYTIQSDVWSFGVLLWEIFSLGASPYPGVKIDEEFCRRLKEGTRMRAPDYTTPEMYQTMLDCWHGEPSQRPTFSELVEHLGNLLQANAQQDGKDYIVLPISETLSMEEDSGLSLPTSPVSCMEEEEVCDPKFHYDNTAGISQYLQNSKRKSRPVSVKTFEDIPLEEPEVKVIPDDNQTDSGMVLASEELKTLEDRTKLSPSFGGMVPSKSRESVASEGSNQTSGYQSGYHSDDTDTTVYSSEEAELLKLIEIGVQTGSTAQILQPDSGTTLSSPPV
Outline: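 Buffer: 20 mM HEPES pH 7.4 with 5 mM MgCl2, 2 mM MnCl2 and 50 μM Na3VO4. Compound (0.0001–10 μM) was premixed 10 min with VEGFR2 (200 ng/10 μl), then poly(Glu,Tyr) substrate (10 ng/ml) and 5 μM ATP were added for 1 h at room temperature. EDTA-quenched samples were read by FP after 30 min with antibody and tracer.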

[2] = test system: skin cancer cell line, A431; experiment: Inhibitory effect on growth of cancer cell line A431, SRB; assay type: cell-based; settings: overexpressed EGFR1 (HER-1)
Outline: as §1

[3] = test system: breast cancer cell line, SK-Br3; experiment: Inhibitory effect on growth of cancer cell line SK-Br3, SRB; assay type: cell-based; settings: overexpressed EGFR2 (HER-2)
Outline: as §1

[4] = test system: Human Umbilical Vein Endothelial Cell (HUVEC); experiment: Inhibitory effect on growth of human umbilical vein endothelial cell (HUVEC), MTS; assay type: cell-based; settings: 10 ng/ml VEGF, absorbance 490 nm

Chain of EGFR1 (HER-1) (P00533 25-1210): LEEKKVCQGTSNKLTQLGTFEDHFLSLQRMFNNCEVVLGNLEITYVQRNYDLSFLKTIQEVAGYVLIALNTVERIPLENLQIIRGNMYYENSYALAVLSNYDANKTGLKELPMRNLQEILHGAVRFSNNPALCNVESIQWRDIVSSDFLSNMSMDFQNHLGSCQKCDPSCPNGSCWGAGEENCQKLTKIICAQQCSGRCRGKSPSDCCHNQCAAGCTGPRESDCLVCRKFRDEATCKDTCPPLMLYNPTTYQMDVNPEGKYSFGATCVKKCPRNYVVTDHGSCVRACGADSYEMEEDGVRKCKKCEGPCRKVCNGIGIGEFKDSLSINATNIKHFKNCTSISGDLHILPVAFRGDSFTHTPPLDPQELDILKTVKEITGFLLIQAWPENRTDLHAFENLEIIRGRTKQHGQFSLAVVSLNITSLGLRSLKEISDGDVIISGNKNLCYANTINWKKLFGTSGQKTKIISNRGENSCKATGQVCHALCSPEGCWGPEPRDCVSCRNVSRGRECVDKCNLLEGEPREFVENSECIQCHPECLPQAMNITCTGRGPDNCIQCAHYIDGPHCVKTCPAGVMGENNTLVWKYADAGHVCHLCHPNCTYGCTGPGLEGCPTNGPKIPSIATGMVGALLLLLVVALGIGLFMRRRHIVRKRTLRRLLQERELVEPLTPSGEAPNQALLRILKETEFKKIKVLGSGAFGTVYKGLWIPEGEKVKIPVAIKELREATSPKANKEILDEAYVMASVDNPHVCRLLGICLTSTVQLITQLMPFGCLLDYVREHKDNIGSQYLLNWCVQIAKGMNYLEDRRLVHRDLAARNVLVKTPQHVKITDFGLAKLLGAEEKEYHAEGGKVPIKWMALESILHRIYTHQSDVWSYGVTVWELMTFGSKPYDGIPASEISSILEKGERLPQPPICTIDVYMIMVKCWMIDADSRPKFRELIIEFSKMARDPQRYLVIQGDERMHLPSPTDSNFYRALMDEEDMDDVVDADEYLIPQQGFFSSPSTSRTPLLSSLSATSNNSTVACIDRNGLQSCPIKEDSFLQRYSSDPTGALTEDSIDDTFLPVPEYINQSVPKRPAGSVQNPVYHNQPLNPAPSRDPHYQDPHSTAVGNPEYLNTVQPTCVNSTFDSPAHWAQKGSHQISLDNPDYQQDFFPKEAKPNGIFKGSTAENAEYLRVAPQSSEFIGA

Compound | IC50 (EGFR1 (HER-1)) | IC50 ([1]; Homo sapiens, 72 h) | IC50 (VEGFR2 (KDR)) | IC50 ([2]; Homo sapiens, A-431, 72 h) | IC50 ([3]; Homo sapiens, SK-BR-3, 72 h) | IC50 ([4]; Homo sapiens, 96 h) | IC50 ([1]; 72 hours) | IC50 ([2]; 72 hours) | IC50 ([3]; 72 hours) | IC50 ([4]; 96 hours)
C=CC(=O)Nc1cc2c(Nc3ccc(OCc4cccnc4)c(Cl)c3)ncnc2cc1OCCNC(C)=O [Example 130, N-{7-(2-acetylamino-ethoxy)-4-[3-chloro-4-(pyridin-3-ylmethoxy)-phenylamino]-quinazolin-6-yl}-acrylamide] | 0.796 µM | 5.53 µM | 0.853 µM | 0.789 µM | 0.987 µM | 0.964 µM |  |  |  | 
C=CC(=O)Nc1cc2c(Nc3cc(Cl)c(Br)cc3F)ncnc2cc1OCCNC(C)=O [Example 133, N-[7-(2-acetylamino-ethoxy)-4-(4-bromo-5-chloro-2-fluoro-phenylamino)-quinazolin-6-yl]-acrylamide] | 0.015 µM | 2.32 µM | 0.419 µM | 0.017 µM | 0.064 µM | 0.429 µM |  |  |  | 
C=CC(=O)Nc1cc2c(Nc3cc(Cl)c(Br)cc3F)ncnc2cc1OCCNC(=O)CC [Example 134, N-[4-(4-bromo-5-chloro-2-fluoro-phenylamino)-7-(2-propionylamino-ethoxy)-quinazolin-6-yl]-acrylamide] | 0.013 µM | 9.59 µM | 0.172 µM | 0.018 µM | 0.062 µM | 1.06 µM |  |  |  | 
C=CC(=O)Nc1cc2c(Nc3cc(Cl)c(Br)cc3F)ncnc2cc1OCCNC(=O)CN(C)C [Example 135, N-{4-(4-bromo-5-chloro-2-fluoro-phenylamino)-7-[2-(2-dimethylamino-acetylamino)-ethoxy]-quinazolin-6-yl}-acrylamide] | 0.009 µM | 2.43 µM | 0.784 µM | 0.011 µM | 0.042 µM | 1.31 µM |  |  |  | 
C=CC(=O)Nc1cc2c(Nc3cc(Cl)c(Cl)cc3F)ncnc2cc1OCCN(C)C [Example 136, N-[4-(4,5-dichloro-2-fluoro-phenylamino)-7-(2-dimethylamino-ethoxy)-quinazolin-6-yl]-acrylamide] | 0.321 µM | 2.94 µM | 0.856 µM | 0.343 µM | 0.181 µM | 0.923 µM |  |  |  | 
C=CC(=O)Nc1cc2c(Nc3cc(Cl)c(Cl)cc3F)ncnc2cc1OCCNC(=O)CC [Example 137, N-[4-(4,5-dichloro-2-fluoro-phenylamino)-7-(2-propionylamino-ethoxy)-quinazolin-6-yl]-acrylamide] | 0.004 µM | 9.58 µM | 0.954 µM | 0.005 µM | 0.04 µM | 0.951 µM |  |  |  | 
C=CC(=O)Nc1cc2c(Nc3cc(Cl)c(Cl)cc3F)ncnc2cc1OCCNC(=O)COC [Example 138, N-{4-(4,5-dichloro-2-fluoro-phenylamino)-7-[2-(2-methoxy-acetylamino)-ethoxy]-quinazolin-6-yl}-acrylamide] | 0.02 µM | 0.721 µM | 0.823 µM | 0.021 µM | 0.039 µM | 0.845 µM |  |  |  | 
C=CC(=O)Nc1cc2c(Nc3cc(Cl)c(Cl)cc3F)ncnc2cc1OCCNC(=O)CS(C)(=O)=O [Example 139, N-{4-(4,5-dichloro-2-fluoro-phenylamino)-7-[2-(2-methanesulfonyl-acetylamino)-ethoxy]-quinazolin-6-yl}-acrylamide] | 0.04 µM | 2.83 µM | 0.657 µM | 0.048 µM | 0.109 µM | 0.682 µM |  |  |  | 
C=CC(=O)Nc1cc2c(Nc3cc(Cl)c(Cl)cc3F)ncnc2cc1OCCNC(=O)CN(C)C [Example 140, N-{4-(4,5-dichloro-2-fluoro-phenylamino)-7-[2-(2-dimethylamino-acetylamino)-ethoxy]-quinazolin-6-yl}-acrylamide] | 0.009 µM | 9.54 µM | 0.751 µM | 0.008 µM | 0.057 µM | 0.756 µM |  |  |  | 
C=CC(=O)Nc1cc2c(Nc3ccc(Br)c(Cl)c3F)ncnc2cc1OCCNC(C)=O [Example 141, N-[7-(2-acetylamino-ethoxy)-4-(4-bromo-3-chloro-2-fluoro-phenylamino)-quinazolin-6-yl]-acrylamide] | 0.013 µM | 10 µM | 0.056 µM | 0.012 µM | 0.037 µM | 0.066 µM |  |  |  | 
C=CC(=O)Nc1cc2c(Nc3ccc(Br)c(Cl)c3F)ncnc2cc1OCCNC(=O)CC [Example 142, N-[4-(4-bromo-3-chloro-2-fluoro-phenylamino)-7-(2-propionylamino-ethoxy)-quinazolin-6-yl]-acrylamide] | 0.014 µM | 10 µM | 0.106 µM | 0.015 µM | 0.045 µM | 0.132 µM |  |  |  | 
C=CC(=O)Nc1cc2c(Nc3ccc(Br)c(Cl)c3F)ncnc2cc1OCCNC(=O)CN(C)C [Example 143, N-{4-(4-bromo-3-chloro-2-fluoro-phenylamino)-7-[2-(2-dimethylamino-acetylamino)-ethoxy]-quinazolin-6-yl}-acrylamide] | 0.019 µM | 2.81 µM | 0.087 µM | 0.011 µM | 0.007 µM | 0.239 µM |  |  |  | 
C=CC(=O)Nc1cc2c(Nc3ccc(Br)c(Cl)c3F)ncnc2cc1OCCNC(=O)CCN(CC)CC [Example 144, N-{4-(4-bromo-3-chloro-2-fluoro-phenylamino)-7-[2-(3-diethylamino-propionylamino)-ethoxy]-quinazolin-6-yl}-acrylamide] | 0.007 µM | 0.721 µM | 0.054 µM | 0.006 µM | 0.012 µM | 0.154 µM |  |  |  | 
C=CC(=O)Nc1cc2c(Nc3ccc(Br)c(Cl)c3F)ncnc2cc1OCCNC(=O)CCO [Example 145, N-{4-(4-bromo-3-chloro-2-fluoro-phenylamino)-7-[2-(3-hydroxy-propionylamino)-ethoxy]-quinazolin-6-yl}-acrylamide] | 0.041 µM | 2.63 µM | 0.088 µM | 0.045 µM | 0.058 µM | 0.116 µM |  |  |  | 
C=CC(=O)Nc1cc2c(Nc3ccc(Br)c(Cl)c3F)ncnc2cc1OCCNC(=O)COC [Example 146, N-{4-(4-bromo-3-chloro-2-fluoro-phenylamino)-7-[2-(2-methoxy-acetylamino)-ethoxy]-quinazolin-6-yl}-acrylamide] | 0.213 µM | 2.79 µM | 0.257 µM | 0.203 µM | 0.097 µM | 0.365 µM |  |  |  | 
C=CC(=O)Nc1cc2c(Nc3ccc(Br)c(Cl)c3F)ncnc2cc1OCCNC(=O)CCN1CCCCC1 [Example 147, N-{4-(4-bromo-3-chloro-2-fluoro-phenylamino)-7-[2-(3-piperidin-1-yl-propionylamino)-ethoxy]-quinazolin-6-yl}-acrylamide] | 0.012 µM | 9.53 µM | 0.079 µM | 0.04 µM | 0.125 µM | 0.167 µM |  |  |  | 
C=CC(=O)Nc1cc2c(Nc3ccc(Br)c(Cl)c3F)ncnc2cc1OCCNC(=O)CO [Example 149, N-{4-(4-bromo-3-chloro-2-fluoro-phenylamino)-7-[2-(2-hydroxy-acetylamino)-ethoxy]-quinazolin-6-yl}-acrylamide] | 0.016 µM | 9.56 µM | 0.147 µM | 0.015 µM | 0.041 µM | 0.204 µM |  |  |  | 
C=CC(=O)Nc1cc2c(Nc3ccc(Br)c(Cl)c3F)ncnc2cc1OCCNC(=O)CCOC [Example 150, N-{4-(4-bromo-3-chloro-2-fluoro-phenylamino)-7-[2-(3-methoxy-propionylamino)-ethoxy]-quinazolin-6-yl}-acrylamide] | 0.021 µM | 9.53 µM | 0.278 µM | 0.022 µM | 0.242 µM | 0.358 µM |  |  |  | 
C=CC(=O)Nc1cc2c(Nc3ccc(Br)c(Cl)c3F)ncnc2cc1OCCNC(=O)CN(CC)CC [Example 151, N-{4-(4-bromo-3-chloro-2-fluoro-phenylamino)-7-[2-(2-diethylamino-acetylamino)-ethoxy]-quinazolin-6-yl}-acrylamide] | 0.058 µM | 9.52 µM | 0.309 µM | 0.068 µM | 0.153 µM | 0.351 µM |  |  |  | 
C=CC(=O)Nc1cc2c(Nc3ccc(Br)cc3F)ncnc2cc1OCC(C)NC(=O)CN(C)C (stereo not drawn) [Example 153] | 0.172 µM |  | 0.433 µM |  |  |  | 9.57 µM | 0.16 µM | 0.207 µM | 0.521 µM
C=CC(=O)Nc1cc2c(Nc3ccc(Br)cc3F)ncnc2cc1OCC(C)NC(=O)CCN(CC)CC (stereo not drawn) [Example 155, N-{4-(4-bromo-2-fluoro-phenylamino)-7-[2-(3-diethylamino-propionylamino)-propoxy]-quinazolin-6-yl}-acrylamide] | 0.024 µM | 9.55 µM | 0.249 µM | 0.035 µM | 0.11 µM | 0.314 µM |  |  |  | 
C=CC(=O)Nc1cc2c(Nc3ccc(Br)c(Cl)c3F)ncnc2cc1OCC(C)NC(=O)CN(C)C (stereo not drawn) [Example 157] | 0.088 µM |  | 0.687 µM |  |  |  | 8.36 µM | 0.095 µM | 0.165 µM | 0.752 µM
